According to patent US3958011A, “Compositions of tri-n-propylacetic acid and salts thereof and treatment of neurological disorders with such compositions” (priority 1972, dated 1976):

How the values were obtained:
[1] = Acute toxicity (LD50), technique of Karber and Behrens; settings: mouse, in vivo, ip
Method: The LD50 was determined on the mouse by intraperitonel route using the technique of KARBER and BEHRENS.

[2] = tested on: mice; assay: Chimney test (tranquillizing properties); type: in vivo; settings: Mus musculus, ip; 50% failed to get out of the test-tube within 30 seconds
Method: This test enables two groups of factors to be evaluated namely neuromuscular factors (muscular strength, agility, coordination of movements) and psychological factors (curiosity, fright, flight instinct).
It was carried out on batches of 10 mice weighing about 25 g each. The compound to be studied was given to each batch by intraperitoneal route so that each batch received a higher dose than the preceding batch. The mice were placed, one after another, head first in a test-tube 30 cm long and calibrated in accordance with the size of the mouse so that by moving backwards the animal could get out of the tube in less than 30 seconds. The number of animals which were unable to do this was noted.

[3] = Rota rod test (neurotoxicity); type: in vivo; settings: mouse, ip, mice, intraperitoneal, 30 min after administration, read-out: NTD50 (neurotoxic dose 50) in the rota rod test
Method: The test used was that known as the rota rod test (BOISSIER-Therapie 1958, XIII, pp. 1074-1118). This test aims at enabling the animals' ability to coordinate their movements to be evaluated. It is carried out on batches of 10 mice each weighing about 25 g. The compound to be tested is administered by intraperitoneal route to the animals of each batch so that each batch receives a higher dose than that given to the preceding batch. Thirty minutes after administration, the mice are placed for two minutes on a wooden roller of 4.8 cm diameter which turns at the rate of 4 revolutions per minute. The roller has a rough surface to prevent the animals from slipping.
By this means, the neurotoxic dose 50 (NTD 50) can be determined, i.e. the dose of the compound with which one half of the animals can no longer stay on the roller during the period of time fixed as the reference period.
In order to obtain an activity index figure 30 minutes after administration the rota rod test described above was also performed using for comparison a known myorelaxant, namely mephenesin.

[4] = tested on: mice; assay: Posture reflex (hypnotic properties); type: in vivo, mice (OF 1); settings: Mus musculus, ip, i.p., read-out: HD50, loss of posture reflex
Method: Male mice of the OF 1 strain, weighing about 25 g. were divided into batches of 10. The animals of each batch were given an intraperitoneal dose of the compound to be studied so that each batch received a higher dose than the preceding batch.
The numbers of animals which lost the reflex at various times after administration were noted.
In this way, the HD50 at different times after administration was determined i.e. the dose of the compound under study which caused 50% of the animals to lose the posture reflex at a given time after administration.

With CCCC(CCC)(CCC)C(=O)[O-].[Na+] [Sodium tri-n-propylacetate, sodium tri-n-propylacetate] the LD50 [1] was 327 mg/kg, the selectivity ratio [1] was 20 to 80 and the ED50 [2] was 72 mg/kg. The TD50 at 0.5 h [3] was 120 mg/kg, the ED50 ([4]; 0.25 h, 15 min. after administration) was 120 mg/kg and the ED50 ([4]; 0.5 h, 30 min. after administration) was 130 mg/kg. It also gave an ED50 ([4]; 0.75 h, 45 min. after administration) of 150 mg/kg and an ED50 ([4]; 1 h, 60 min. after administration) of 200 mg/kg.
